Experimental data taken from ChEMBL document CHEMBL3822442, “Synthesis and Pharmacological Characterization of Novel Glucagon-like Peptide-2 (GLP-2) Analogues with Low Systemic Clearance” (J Med Chem, 2016).

Legend:
[1] = molecular target: T1, Glucagon-like peptide 2 receptor (Homo sapiens, UniProt O95838); experiment: Agonist activity at human GLP2R expressed in HEK293 cells after 5 hrs by luciferase reporter gene assay; type: cell-based
T1 sequence (O95838 whole entry): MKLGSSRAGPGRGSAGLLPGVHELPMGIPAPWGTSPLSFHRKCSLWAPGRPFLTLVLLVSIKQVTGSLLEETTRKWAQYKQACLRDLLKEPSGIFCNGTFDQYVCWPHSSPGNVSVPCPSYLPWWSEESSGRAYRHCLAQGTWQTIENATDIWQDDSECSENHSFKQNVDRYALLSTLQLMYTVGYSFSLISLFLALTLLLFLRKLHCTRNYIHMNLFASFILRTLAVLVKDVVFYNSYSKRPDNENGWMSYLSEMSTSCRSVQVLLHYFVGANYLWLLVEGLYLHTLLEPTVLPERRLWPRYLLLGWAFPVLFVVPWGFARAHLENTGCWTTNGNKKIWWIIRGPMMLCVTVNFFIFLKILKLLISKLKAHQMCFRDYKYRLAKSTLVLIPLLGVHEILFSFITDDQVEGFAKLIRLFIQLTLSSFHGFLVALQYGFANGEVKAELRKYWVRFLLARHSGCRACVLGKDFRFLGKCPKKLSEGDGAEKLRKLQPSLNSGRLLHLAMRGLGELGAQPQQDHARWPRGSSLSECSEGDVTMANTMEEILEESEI

[2] = molecular target: Glucagon-like peptide 1 receptor (Homo sapiens, UniProt P43220); experiment: Agonist activity at human GLP1R expressed in HEK293 cells after 5 hrs by luciferase reporter gene assay; type: cell-based
Glucagon-like peptide 1 receptor, sequence (P43220 whole entry): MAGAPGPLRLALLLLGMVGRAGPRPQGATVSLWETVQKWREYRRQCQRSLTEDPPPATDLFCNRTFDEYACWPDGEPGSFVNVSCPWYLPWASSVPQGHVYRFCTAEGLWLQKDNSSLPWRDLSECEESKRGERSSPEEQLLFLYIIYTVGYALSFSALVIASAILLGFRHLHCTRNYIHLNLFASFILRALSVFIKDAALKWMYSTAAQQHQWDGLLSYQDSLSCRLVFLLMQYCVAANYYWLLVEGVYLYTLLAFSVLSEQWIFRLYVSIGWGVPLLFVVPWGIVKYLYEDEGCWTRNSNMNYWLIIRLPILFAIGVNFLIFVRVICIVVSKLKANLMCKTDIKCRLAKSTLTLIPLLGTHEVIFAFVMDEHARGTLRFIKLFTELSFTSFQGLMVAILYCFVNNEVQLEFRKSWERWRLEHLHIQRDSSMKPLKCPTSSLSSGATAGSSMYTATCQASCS

Row | Compound | EC50 [1] [nM] | EC50 [2] [nM]
1 | CCCC[C@H](NC(=O)[C@H](CCC(=O)O)NC(=O)[C@H](CC(=O)O)NC(=O)[C@H](CO)NC(=O)[C@H](Cc1ccccc1)NC(=O)[C@H](CO)NC(=O)CNC(=O)[C@H](CC(=O)O)NC(=O)CNC(=O)[C@@H](N)Cc1cnc[nH]1)C(=O)N[C@@H](CC(N)=O)C(=O)N[C@H](C(=O)N[C@H](C(=O)N[C@@H](CC(C)C)C(=O)N[C@@H](CC(=O)O)C(=O)N[C@@H](CC1CCCCC1)C(=O)N[C@@H](CC(C)C)C(=O)N[C@@H](C)C(=O)N[C@@H](C)C(=O)N[C@@H](CCCNC(=N)N)C(=O)N[C@@H](CC(=O)O)C(=O)N[C@@H](Cc1ccccc1)C(=O)N[C@H](C(=O)N[C@@H](CC(N)=O)C(=O)N[C@@H](Cc1c[nH]c2ccccc12)C(=O)N[C@@H](CC(C)C)C(=O)N[C@H](C(=O)N[C@@H](CCC(N)=O)C(=O)N[C@H](C(=O)N[C@@H](CCCCN)C(N)=O)[C@@H](C)O)[C@@H](C)CC)[C@@H](C)CC)[C@@H](C)CC)[C@@H](C)O | 0.1 | > 1000
2 | CCCC[C@H](NC(=O)[C@H](CCC(=O)O)NC(=O)[C@H](CC(=O)O)NC(=O)[C@H](CO)NC(=O)[C@H](Cc1ccccc1)NC(=O)[C@H](CO)NC(=O)CNC(=O)[C@H](CC(=O)O)NC(=O)CNC(=O)[C@@H](N)Cc1cnc[nH]1)C(=O)N[C@H](Cc1ccccc1)C(=O)N[C@H](C(=O)N[C@H](C(=O)N[C@@H](CC(C)C)C(=O)N[C@@H](CC(=O)O)C(=O)N[C@@H](CC(C)C)C(=O)N[C@@H](CC(C)C)C(=O)N[C@@H](C)C(=O)N[C@@H](C)C(=O)N[C@@H](CCCNC(=N)N)C(=O)N[C@@H](CC(=O)O)C(=O)N[C@@H](Cc1ccccc1)C(=O)N[C@H](C(=O)N[C@@H](CC(N)=O)C(=O)N[C@@H](Cc1c[nH]c2ccccc12)C(=O)N[C@@H](CC(C)C)C(=O)N[C@H](C(=O)N[C@@H](CCC(N)=O)C(=O)N[C@H](C(=O)N[C@@H](CCCCN)C(=O)N[C@H](C(=O)N[C@H](C(=O)N[C@@H](CC(=O)O)C(=O)NCC)[C@@H](C)O)[C@@H](C)CC)[C@@H](C)O)[C@@H](C)CC)[C@@H](C)CC)[C@@H](C)CC)[C@@H](C)O | 0.05 | > 1000
3 | CCCC[C@H](NC(=O)[C@H](CCC(=O)O)NC(=O)[C@H](CC(=O)O)NC(=O)[C@H](CO)NC(=O)[C@H](Cc1ccccc1)NC(=O)[C@H](CO)NC(=O)CNC(=O)[C@H](CC(=O)O)NC(=O)CNC(=O)[C@@H](N)Cc1cnc[nH]1)C(=O)N[C@H](CC(C)C)C(=O)N[C@H](C(=O)N[C@H](C(=O)N[C@@H](CC(C)C)C(=O)N[C@@H](CC(=O)O)C(=O)N[C@@H](CC(N)=O)C(=O)N[C@@H](CC(C)C)C(=O)N[C@@H](C)C(=O)N[C@@H](C)C(=O)N[C@@H](CCCNC(=N)N)C(=O)N[C@@H](CC(=O)O)C(=O)N[C@@H](Cc1ccccc1)C(=O)N[C@H](C(=O)N[C@@H](CC(N)=O)C(=O)N[C@@H](Cc1c[nH]c2ccccc12)C(=O)N[C@@H](CC(C)C)C(=O)N[C@H](C(=O)N[C@@H](CCC(N)=O)C(=O)N[C@H](C(=O)N[C@@H](CCCCN)C(N)=O)[C@@H](C)O)[C@@H](C)CC)[C@@H](C)CC)[C@@H](C)CC)[C@@H](C)O | 0.31 | > 1000
4 | CCCC[C@H](NC(=O)[C@H](CCC(=O)O)NC(=O)[C@H](CC(=O)O)NC(=O)[C@H](CO)NC(=O)[C@H](Cc1ccccc1)NC(=O)[C@H](CO)NC(=O)CNC(=O)[C@H](CC(=O)O)NC(=O)CNC(=O)[C@@H](N)Cc1cnc[nH]1)C(=O)N[C@H](Cc1cccs1)C(=O)N[C@H](C(=O)N[C@H](C(=O)N[C@@H](CC(C)C)C(=O)N[C@@H](CC(=O)O)C(=O)N[C@@H](Cc1ccccc1)C(=O)N[C@@H](CC(C)C)C(=O)N[C@@H](C)C(=O)N[C@@H](C)C(=O)N[C@@H](CCCNC(=N)N)C(=O)N[C@@H](CC(=O)O)C(=O)N[C@@H](Cc1ccccc1)C(=O)N[C@H](C(=O)N[C@@H](CC(N)=O)C(=O)N[C@@H](Cc1c[nH]c2ccccc12)C(=O)N[C@@H](CC(C)C)C(=O)N[C@H](C(=O)N[C@@H](CCC(N)=O)C(=O)N[C@H](C(=O)N[C@@H](CCCCN)C(N)=O)[C@@H](C)O)[C@@H](C)CC)[C@@H](C)CC)[C@@H](C)CC)[C@@H](C)O | 0.08 | > 1000

Now from value to compound:

Row | EC50 [1] [nM] | EC50 [2] [nM] | Compound
5 | 0.19 | > 1000 | CCCC[C@H](NC(=O)[C@H](CCC(=O)O)NC(=O)[C@H](CC(=O)O)NC(=O)[C@H](CO)NC(=O)[C@H](Cc1ccccc1)NC(=O)[C@H](CO)NC(=O)CNC(=O)[C@H](CC(=O)O)NC(=O)CNC(=O)[C@@H](N)Cc1cnc[nH]1)C(=O)N[C@@H](CC(N)=O)C(=O)N[C@H](C(=O)N[C@H](C(=O)N[C@@H](CC(C)C)C(=O)N[C@@H](CC(=O)O)C(=O)N[C@@H](Cc1cccc2ccccc12)C(=O)N[C@@H](CC(C)C)C(=O)N[C@@H](C)C(=O)N[C@@H](C)C(=O)N[C@@H](CCCNC(=N)N)C(=O)N[C@@H](CC(=O)O)C(=O)N[C@@H](Cc1ccccc1)C(=O)N[C@H](C(=O)N[C@@H](CC(N)=O)C(=O)N[C@@H](Cc1c[nH]c2ccccc12)C(=O)N[C@@H](CC(C)C)C(=O)N[C@H](C(=O)N[C@@H](CCC(N)=O)C(=O)N[C@H](C(=O)N[C@@H](CCCCN)C(N)=O)[C@@H](C)O)[C@@H](C)CC)[C@@H](C)CC)[C@@H](C)CC)[C@@H](C)O
6 | 0.35 | > 1000 | CCCC[C@H](NC(=O)[C@H](CCC(=O)O)NC(=O)[C@H](CC(=O)O)NC(=O)[C@H](CO)NC(=O)[C@H](Cc1ccccc1)NC(=O)[C@H](CO)NC(=O)CNC(=O)[C@H](CC(=O)O)NC(=O)CNC(=O)[C@@H](N)Cc1cnc[nH]1)C(=O)N[C@@H](CC(N)=O)C(=O)N[C@H](C(=O)N[C@H](C(=O)N[C@@H](CC(C)C)C(=O)N[C@@H](CC(=O)O)C(=O)N[C@@H](Cc1ccc(-c2ccccc2)cc1)C(=O)N[C@@H](CC(C)C)C(=O)N[C@@H](C)C(=O)N[C@@H](C)C(=O)N[C@@H](CCCNC(=N)N)C(=O)N[C@@H](CC(=O)O)C(=O)N[C@@H](Cc1ccccc1)C(=O)N[C@H](C(=O)N[C@@H](CC(N)=O)C(=O)N[C@@H](Cc1c[nH]c2ccccc12)C(=O)N[C@@H](CC(C)C)C(=O)N[C@H](C(=O)N[C@@H](CCC(N)=O)C(=O)N[C@H](C(=O)N[C@@H](CCCCN)C(N)=O)[C@@H](C)O)[C@@H](C)CC)[C@@H](C)CC)[C@@H](C)CC)[C@@H](C)O
7 | 0.09 | 60 | CCCC[C@H](NC(=O)[C@H](CCC(=O)O)NC(=O)[C@H](CC(=O)O)NC(=O)[C@H](CO)NC(=O)[C@H](Cc1ccccc1)NC(=O)[C@H](CO)NC(=O)CNC(=O)[C@H](CC(=O)O)NC(=O)CNC(=O)[C@@H](N)Cc1cnc[nH]1)C(=O)N[C@H](Cc1ccc(Cl)cc1)C(=O)N[C@H](C(=O)N[C@H](C(=O)N[C@@H](CC(C)C)C(=O)N[C@@H](CC(=O)O)C(=O)N[C@@H](CC(N)=O)C(=O)N[C@@H](CC(C)C)C(=O)N[C@@H](C)C(=O)N[C@@H](C)C(=O)N[C@@H](CCCNC(=N)N)C(=O)N[C@@H](CC(=O)O)C(=O)N[C@@H](Cc1ccccc1)C(=O)N[C@H](C(=O)N[C@@H](CC(N)=O)C(=O)N[C@@H](Cc1c[nH]c2ccccc12)C(=O)N[C@@H](CC(C)C)C(=O)N[C@H](C(=O)N[C@@H](CCC(N)=O)C(=O)N[C@H](C(=O)N[C@@H](CCCCN)C(N)=O)[C@@H](C)O)[C@@H](C)CC)[C@@H](C)CC)[C@@H](C)CC)[C@@H](C)O
8 | 0.13 | > 1000 | CCCC[C@H](NC(=O)[C@H](CCC(=O)O)NC(=O)[C@H](CC(=O)O)NC(=O)[C@H](CO)NC(=O)[C@H](Cc1ccccc1)NC(=O)[C@H](CO)NC(=O)CNC(=O)[C@H](CC(=O)O)NC(=O)CNC(=O)[C@@H](N)Cc1c[nH]cn1)C(=O)N[C@@H](CC(N)=O)C(=O)N[C@H](C(=O)N[C@H](C(=O)N[C@@H](CC(C)C)C(=O)N[C@@H](CC(=O)O)C(=O)N[C@@H](Cc1ccc2ccccc2c1)C(=O)N[C@@H](CC(C)C)C(=O)N[C@@H](C)C(=O)N[C@@H](C)C(=O)N[C@@H](CCCNC(=N)N)C(=O)N[C@@H](CC(=O)O)C(=O)N[C@@H](Cc1ccccc1)C(=O)N[C@H](C(=O)N[C@@H](CC(N)=O)C(=O)N[C@@H](Cc1c[nH]c2ccccc12)C(=O)N[C@@H](CC(C)C)C(=O)N[C@H](C(=O)N[C@@H](CCC(N)=O)C(=O)N[C@H](C(=O)N[C@@H](CCCCN)C(N)=O)[C@@H](C)O)[C@@H](C)CC)[C@@H](C)CC)[C@@H](C)CC)[C@@H](C)O
9 | 0.13 | > 1000 | CCCC[C@H](NC(=O)[C@H](CCC(=O)O)NC(=O)[C@H](CC(=O)O)NC(=O)[C@H](CO)NC(=O)[C@H](Cc1ccccc1)NC(=O)[C@H](CO)NC(=O)CNC(=O)[C@H](CC(=O)O)NC(=O)CNC(=O)[C@@H](N)Cc1c[nH]cn1)C(=O)N[C@@H](CC(N)=O)C(=O)N[C@H](C(=O)N[C@H](C(=O)N[C@@H](CC(C)C)C(=O)N[C@@H](CC(=O)O)C(=O)N[C@@H](Cc1ccc(N)cc1)C(=O)N[C@@H](CC(C)C)C(=O)N[C@@H](C)C(=O)N[C@@H](C)C(=O)N[C@@H](CCCNC(=N)N)C(=O)N[C@@H](CC(=O)O)C(=O)N[C@@H](Cc1ccccc1)C(=O)N[C@H](C(=O)N[C@@H](CC(N)=O)C(=O)N[C@@H](Cc1c[nH]c2ccccc12)C(=O)N[C@@H](CC(C)C)C(=O)N[C@H](C(=O)N[C@@H](CCC(N)=O)C(=O)N[C@H](C(=O)N[C@@H](CCCCN)C(N)=O)[C@@H](C)O)[C@@H](C)CC)[C@@H](C)CC)[C@@H](C)CC)[C@@H](C)O
